In patent US20060211026A1, “Methods for assessing emphysema” (Roche Palo Alto LLC, priority 2005, published 2006):

Legend:
Type in all cases: in vivo, Sprague-Dawley rats
tropoelastin = experiment: Tropoelastin ELISA in homogenized lung tissue of smoke-exposed rats; details: oral daily 30 days after 8 months smoke; ATRA 3 mg/kg, R667 0.07-0.7 mg/kg; FIG. 1
Procedure: FIG. 1 depicts the amount of tropoelastin (in ng) measured in rats after treatment as set forth in Example 1(B).
(§1) (B) Adult male Sprague-Dawley rats were exposed daily to 10 cigarettes/rat for 8 months (control rats were exposed to air) to establish emphysema lesions. […] Supernatant from homogenized lung tissue was analyzed for concentration of tropoelastin by ELISA (using rabbit anti-tropoelastin; Elastin Products Co.).

[1] = system: gene expression in lung right lobes of 8 months smoked rats; experiment: Lung gene expression by Affymetrix microarray in smoke-exposed rats
Procedure: as §1
Three individual lung right lobes from each condition were processed to extract mRNA according to standard Affymetrix protocols, and samples hybridized to Affymetrix Rat Expression Set 230 microarrays. Gene expression was analyzed using the Bioconductor package (Gentleman et al., Genome Biol (2004) v. 5), and differentially expressed genes selected using ANOVA model followed by Dunnett's test.

[2] = system: gene expression in lung right lobes of 8 months smoked rats; experiment: Lung gene expression by quantitative PCR in smoke-exposed rats; details: for Adam17 gene expression relative to 8 months smoked rats / Angpt1 gene expression relative to 8 months smoked rats / Areg gene expression relative to 8 months smoked rats / Colla1 gene expression relative to 8 months smoked rats / Crabp2 gene expression relative to 8 months smoked rats / Csf2 gene expression relative to 8 months smoked rats / Cxcl1 gene expression relative to 8 months smoked rats / Cxcl2 gene expression relative to 8 months smoked rats / Cxcl5 gene expression relative to 8 months smoked rats / Cyp26a1 gene expression relative to 8 months smoked rats / EGFR gene expression relative to 8 months smoked rats / Eln gene expression relative to 8 months smoked rats / FGF7 gene expression relative to 8 months smoked rats / Flt1 gene expression relative to 8 months smoked rats / Hif1a gene expression relative to 8 months smoked rats / HpGF gene expression relative to 8 months smoked rats / Hyou1 gene expression relative to 8 months smoked rats / Il6 gene expression relative to 8 months smoked rats / Il8ra/CXCR1 gene expression relative to 8 months smoked rats / Il8rb/CXCR2 gene expression relative to 8 months smoked rats / Kdr gene expression relative to 8 months smoked rats / Mmp9 gene expression relative to 8 months smoked rats / Mmp12 gene expression relative to 8 months smoked rats / PDGFA gene expression relative to 8 months smoked rats / Pgf gene expression relative to 8 months smoked rats / Rbp1 gene expression relative to 8 months smoked rats / Serpina1 gene expression relative to 8 months smoked rats / Sftpa1 gene expression relative to 8 months smoked rats / Sftpb gene expression relative to 8 months smoked rats / Slpi gene expression relative to 8 months smoked rats / TNF gene expression relative to 8 months smoked rats / Tek gene expression relative to 8 months smoked rats / Tgfb1 gene expression relative to 8 months smoked rats / Tgfbr2 gene expression relative to 8 months smoked rats / Tgm2 gene expression relative to 8 months smoked rats / Timp3 gene expression relative to 8 months smoked rats / VEGFa gene expression relative to 8 months smoked rats: rat lung
Procedure: as §1
RNA prepared from snap-frozen lung right lobes was analyzed for gene expression by quantitative PCR, using ABI Taqman following standard procedures.

[3] = R667 0.07 mg/kg oral daily 30 days
[4] = R667 0.15 mg/kg oral daily 30 days
[5] = R667 0.7 mg/kg oral daily 30 days

With `CC1=C(/C=C/C(C)=C/C=C/C(C)=C/C(=O)O)C(C)(C)CCC1` [ATRA, all-trans retinoic acid, reference compound] the “Tropoelastin in lung tissue (effect of treatment)” value (tropoelastin) was “partially restored”.

With `CC1(C)CCC(C)(C)c2cc(Cn3cccn3)c(C=Cc3ccc(C(=O)O)cc3)cc21` [R667, 4-[2-(5,5,8,8-tetramethyl-3-pyrazol-1-ylmethyl-5,6,7,8-tetrahydronaphthalen2-yl)-vinyl]-benzoic acid] the “ELN expression level from microarray, relative to the 8 months smoked rat” value [1, 3] was 2.8 fold, the “VEGF expression level from microarray, relative to the 8 months smoked rat” value [1, 3] was 1.7 fold and the “ELN expression level from microarray, relative to the 8 months smoked rat” value [1, 4] was 3.1 fold. The “VEGF expression level from microarray, relative to the 8 months smoked rat” value [1, 4] was 1.5 fold, the “ELN expression level from microarray, relative to the 8 months smoked rat” value [1, 5] was 3.8 fold and the “VEGF expression level from microarray, relative to the 8 months smoked rat” value [1, 5] was 2.4 fold. The “Tropoelastin in lung tissue (effect of treatment)” value (tropoelastin) was “partially restored”, the “Adam17 gene expression relative to 8 months smoked rats” value [2, 3] was 3.5 and the “Angpt1 gene expression relative to 8 months smoked rats” value [2, 3] was 3.8. For the same compound, the “Areg gene expression relative to 8 months smoked rats” value [2, 3] was 5.9, the “Colla1 gene expression relative to 8 months smoked rats” value [2, 3] was 7.1 and the “Crabp2 gene expression relative to 8 months smoked rats” value [2, 3] was 2.0. The “Csf2 gene expression relative to 8 months smoked rats” value [2, 3] was 1.5, the “Cxcl1 gene expression relative to 8 months smoked rats” value [2, 3] was 3.3 and the “Cxcl2 gene expression relative to 8 months smoked rats” value [2, 3] was 2.3. For the same compound, the “Cxcl5 gene expression relative to 8 months smoked rats” value [2, 3] was 50.1, the “Cyp26a1 gene expression relative to 8 months smoked rats” value [2, 3] was 2.2 and the “EGFR gene expression relative to 8 months smoked rats” value [2, 3] was 4.8. For the same compound, the “Eln gene expression relative to 8 months smoked rats” value [2, 3] was 5.6, the “FGF7 gene expression relative to 8 months smoked rats” value [2, 3] was 2.1 and the “Flt1 gene expression relative to 8 months smoked rats” value [2, 3] was 1.7. The “Hif1a gene expression relative to 8 months smoked rats” value [2, 3] was 1.7, the “HpGF gene expression relative to 8 months smoked rats” value [2, 3] was 3.0 and the “Hyou1 gene expression relative to 8 months smoked rats” value [2, 3] was 2.7. For the same compound, the “Il6 gene expression relative to 8 months smoked rats” value [2, 3] was 1.8, the “Il8ra/CXCR1 gene expression relative to 8 months smoked rats” value [2, 3] was 3.8 and the “Il8rb/CXCR2 gene expression relative to 8 months smoked rats” value [2, 3] was 2.0. The “Kdr gene expression relative to 8 months smoked rats” value [2, 3] was 1.3, the “Mmp9 gene expression relative to 8 months smoked rats” value [2, 3] was 1.7 and the “Mmp12 gene expression relative to 8 months smoked rats” value [2, 3] was 4.9. The “PDGFA gene expression relative to 8 months smoked rats” value [2, 3] was 4.3, the “Pgf gene expression relative to 8 months smoked rats” value [2, 3] was 1.6 and the “Rbp1 gene expression relative to 8 months smoked rats” value [2, 3] was 2.1. For the same compound, the “Serpina1 gene expression relative to 8 months smoked rats” value [2, 3] was 2.3, the “Sftpa1 gene expression relative to 8 months smoked rats” value [2, 3] was 5.4 and the “Sftpb gene expression relative to 8 months smoked rats” value [2, 3] was 1.9. The “Slpi gene expression relative to 8 months smoked rats” value [2, 3] was 3.6, the “TNF gene expression relative to 8 months smoked rats” value [2, 3] was 3.3 and the “Tek gene expression relative to 8 months smoked rats” value [2, 3] was 1.4. For the same compound, the “Tgfb1 gene expression relative to 8 months smoked rats” value [2, 3] was 1.4, the “Tgfbr2 gene expression relative to 8 months smoked rats” value [2, 3] was 2.0 and the “Tgm2 gene expression relative to 8 months smoked rats” value [2, 3] was 16.2. For the same compound, the “Timp3 gene expression relative to 8 months smoked rats” value [2, 3] was 3.5, the “VEGFa gene expression relative to 8 months smoked rats” value [2, 3] was 1.6 and the “Adam17 gene expression relative to 8 months smoked rats” value [2, 4] was 3.6. For the same compound, the “Angpt1 gene expression relative to 8 months smoked rats” value [2, 4] was 1.8, the “Areg gene expression relative to 8 months smoked rats” value [2, 4] was 3.7 and the “Colla1 gene expression relative to 8 months smoked rats” value [2, 4] was 8.4. For the same compound, the “Crabp2 gene expression relative to 8 months smoked rats” value [2, 4] was 1.5, the “Csf2 gene expression relative to 8 months smoked rats” value [2, 4] was 1.9 and the “Cxcl1 gene expression relative to 8 months smoked rats” value [2, 4] was 2.9. The “Cxcl2 gene expression relative to 8 months smoked rats” value [2, 4] was 1.6, the “Cxcl5 gene expression relative to 8 months smoked rats” value [2, 4] was 50.0 and the “Cyp26a1 gene expression relative to 8 months smoked rats” value [2, 4] was 3.9. For the same compound, the “EGFR gene expression relative to 8 months smoked rats” value [2, 4] was 3.2, the “Eln gene expression relative to 8 months smoked rats” value [2, 4] was 6.1 and the “FGF7 gene expression relative to 8 months smoked rats” value [2, 4] was 2.1. The “Flt1 gene expression relative to 8 months smoked rats” value [2, 4] was 1.8, the “Hif1a gene expression relative to 8 months smoked rats” value [2, 4] was 1.4 and the “HpGF gene expression relative to 8 months smoked rats” value [2, 4] was 3.1. For the same compound, the “Hyou1 gene expression relative to 8 months smoked rats” value [2, 4] was 3.3, the “Il6 gene expression relative to 8 months smoked rats” value [2, 4] was 2.4 and the “Il8ra/CXCR1 gene expression relative to 8 months smoked rats” value [2, 4] was 4.5. For the same compound, the “Il8rb/CXCR2 gene expression relative to 8 months smoked rats” value [2, 4] was 2.0, the “Kdr gene expression relative to 8 months smoked rats” value [2, 4] was 1.9 and the “Mmp9 gene expression relative to 8 months smoked rats” value [2, 4] was 1.5. The “Mmp12 gene expression relative to 8 months smoked rats” value [2, 4] was 5.9, the “PDGFA gene expression relative to 8 months smoked rats” value [2, 4] was 2.9 and the “Pgf gene expression relative to 8 months smoked rats” value [2, 4] was 0.9. The “Rbp1 gene expression relative to 8 months smoked rats” value [2, 4] was 3.5, the “Serpina1 gene expression relative to 8 months smoked rats” value [2, 4] was 1.5 and the “Sftpa1 gene expression relative to 8 months smoked rats” value [2, 4] was 4.4. The “Sftpb gene expression relative to 8 months smoked rats” value [2, 4] was 2.1, the “Slpi gene expression relative to 8 months smoked rats” value [2, 4] was 1.6 and the “TNF gene expression relative to 8 months smoked rats” value [2, 4] was 4.2. For the same compound, the “Tek gene expression relative to 8 months smoked rats” value [2, 4] was 1.3, the “Tgfb1 gene expression relative to 8 months smoked rats” value [2, 4] was 2.0 and the “Tgfbr2 gene expression relative to 8 months smoked rats” value [2, 4] was 1.5. The “Tgm2 gene expression relative to 8 months smoked rats” value [2, 4] was 28.3, the “Timp3 gene expression relative to 8 months smoked rats” value [2, 4] was 2.9 and the “VEGFa gene expression relative to 8 months smoked rats” value [2, 4] was 2.3. The “Adam17 gene expression relative to 8 months smoked rats” value [2, 5] was 7.8, the “Angpt1 gene expression relative to 8 months smoked rats” value [2, 5] was 3.1 and the “Areg gene expression relative to 8 months smoked rats” value [2, 5] was 7.2. The “Colla1 gene expression relative to 8 months smoked rats” value [2, 5] was 7.9, the “Crabp2 gene expression relative to 8 months smoked rats” value [2, 5] was 1.4 and the “Csf2 gene expression relative to 8 months smoked rats” value [2, 5] was 2.9. For the same compound, the “Cxcl1 gene expression relative to 8 months smoked rats” value [2, 5] was 6.5, the “Cxcl2 gene expression relative to 8 months smoked rats” value [2, 5] was 3.4 and the “Cxcl5 gene expression relative to 8 months smoked rats” value [2, 5] was 81.6. The “Cyp26a1 gene expression relative to 8 months smoked rats” value [2, 5] was 3.7, the “EGFR gene expression relative to 8 months smoked rats” value [2, 5] was 4.0 and the “Eln gene expression relative to 8 months smoked rats” value [2, 5] was 9.4. The “FGF7 gene expression relative to 8 months smoked rats” value [2, 5] was 1.6, the “Flt1 gene expression relative to 8 months smoked rats” value [2, 5] was 2.6 and the “Hif1a gene expression relative to 8 months smoked rats” value [2, 5] was 2.0. The “HpGF gene expression relative to 8 months smoked rats” value [2, 5] was 5.6, the “Hyou1 gene expression relative to 8 months smoked rats” value [2, 5] was 5.8 and the “Il6 gene expression relative to 8 months smoked rats” value [2, 5] was 4.5. For the same compound, the “Il8ra/CXCR1 gene expression relative to 8 months smoked rats” value [2, 5] was 4.2, the “Il8rb/CXCR2 gene expression relative to 8 months smoked rats” value [2, 5] was 2.5 and the “Kdr gene expression relative to 8 months smoked rats” value [2, 5] was 1.7. The “Mmp9 gene expression relative to 8 months smoked rats” value [2, 5] was 1.9, the “Mmp12 gene expression relative to 8 months smoked rats” value [2, 5] was 7.3 and the “PDGFA gene expression relative to 8 months smoked rats” value [2, 5] was 4.5. The “Pgf gene expression relative to 8 months smoked rats” value [2, 5] was 2.7, the “Rbp1 gene expression relative to 8 months smoked rats” value [2, 5] was 3.9 and the “Serpina1 gene expression relative to 8 months smoked rats” value [2, 5] was 2.9. For the same compound, the “Sftpa1 gene expression relative to 8 months smoked rats” value [2, 5] was 7.0, the “Sftpb gene expression relative to 8 months smoked rats” value [2, 5] was 2.9 and the “Slpi gene expression relative to 8 months smoked rats” value [2, 5] was 4.4. For the same compound, the “TNF gene expression relative to 8 months smoked rats” value [2, 5] was 4.0, the “Tek gene expression relative to 8 months smoked rats” value [2, 5] was 1.3 and the “Tgfb1 gene expression relative to 8 months smoked rats” value [2, 5] was 3.2. For the same compound, the “Tgfbr2 gene expression relative to 8 months smoked rats” value [2, 5] was 2.1, the “Tgm2 gene expression relative to 8 months smoked rats” value [2, 5] was 24.6 and the “Timp3 gene expression relative to 8 months smoked rats” value [2, 5] was 4.8. The “VEGFa gene expression relative to 8 months smoked rats” value [2, 5] was 2.9 and the “Restoration of smoke-suppressed gene expression in lung” value ([2]; rats smoked 8 months, then R667 daily 30 days) was “restore expression of these genes to near-normal levels”.
